# How the values were obtained:
# [1] = system: PE pre-contracted isolated aorta; assay: vasodilating activity, isolated artery technique (PE-precontracted isolated aorta); parameters: species or system Wistar rats; conditions: for vasodilation of PE precontracted isolated aortae: isolated compounds 1-10 μM cumulative, vs time control, p<0.05, FIG. 7-8
# Description: Male Wistar rats 6-8 weeks old (180-200 g) (King Fahd Medical Research Center, King Abdulaziz University, Jeddah, Saudi Arabia) were used in this study. Clear polypropylene cages containing 4 rats each were used to house the animals and provided access to purified water and standard rodent pellets. The animal housing conditions applied were constant involving alternating 12 hours light and dark, a temperature of 22±3° C., a relative humidity of 50-60%, and adequate ventilation. Experimental protocol was approved by the Research Ethical Committee, Faculty of Pharmacy, King Abdulaziz University, Jeddah, Saudi Arabia (approval number 126-1439) and was conducted in accordance with the Saudi Arabia Research Bioethics and Regulations.
# All animals used for the purpose of this study received a standard pellet diet and drinking water. Animals were killed by decapitation with rodent guillotine and the descending thoracic aorta was carefully excised and cleaned from fat and connective tissue.
# (§1) The vasodilating activities of the methanol extract, fractions, and isolated compounds were studied using the isolated artery technique as previously described (El-Bassossy et al., 2013; El-Bassossy et al., 2016). Briefly, aorta was excised, cleaned of any fats and connective tissue, and cut into 3 mm rings. Each ring was suspended in channels filled with 25 ml of Krebs Henseleit buffer (118 mM NaCl, 4.8 mM KCl, 2.5 mM CaCl2), 1.2 mM MgSO4, 1.2 mM KH2PO4, 25 mM NaHCO3, and 11.1 mM glucose) maintained at 37° C. and continuously aerated with gas consisting of 95% oxygen and 5% carbon dioxide. The buffer solution in the channels was changed every 30 minutes.
# (§2) The aortic rings were left to equilibrate for 20 minutes at a resting tension of 1500 mg±50. Primary contraction and relaxation of the aorta were then performed by adding PE (10^−5 M) followed by ACh […]. After the tension was returned to resting state, cumulative concentrations of the total extract, fractions (1-10 μg/ml) or the pure isolated compounds (1-10 μM) were added to the organ bath containing the isolated aortae precontracted with PE (10 μM). The decrease in tension was measured as a measure of vasodilation activities.
# (§3) In all experiments, similar PE-precontraction tension was achieved before testing the vasodilating responses.
# [2] = system: PE pre-contracted endothelium-denuded aorta; assay: vasodilating activity in endothelium-denuded PE-precontracted isolated aorta; parameters: species or system Wistar rats; conditions: isolated compounds, 10 μM, p<0.05; FIG. 7-8
# Description: as §1, §2
# In another set of experiments, endothelium was mechanically denuded in order to investigate its role in the vasodilation effect.
# as §3
# [3] = system: vascular NO production (isolated aorta); assay: NO production from isolated aorta, fluorescence probe DAF-FM; parameters: species or system Wistar rats; conditions: 10 μM; DAF-FM 2.5 μM; 37° C.; FIG. 9
# Description: Induction of intracellular NO production from the isolated aorta by the total extract, fraction I or the pure isolated compounds was investigated using the fluorescence probe DAF-FM as described in previous work with some modifications (Ghareib et al., 2015). Similar to previous technique, the thoracic aorta was excised, cleaned of fats, and cut into approximately 6 mm pieces. Each piece was added to a separate well in a 96-well black plate, kept in dim light, containing KHB/DAF-FM (2.5 μM) mixture (37° C.) and prepared directly before commencement of the procedure. After 3 minutes, 100 μl were carefully drawn and transferred to the adjacent column of wells after which 10 μM ACh was added to one of the aortic segments and 10 μg/ml of the total extract or fraction I or 10 μM of the pure isolated compounds was added to the other wells. Again after 3 minutes, 100 μl were drawn from the wells with the aortae and transferred to the next column of wells. For the blank, a row was kept without an aorta for each concentration of ACh was treated in the same manner. The fluorescence intensity for the withdrawn volumes (and not the column containing the aortae) was then measured at λex=485 nm and […] with the use of Monochromator SPECTRAMAX® M3 plate reader (Molecular Devices, Sunnyvale, Calif., USA).
# [4] = ROS scavenging ability, DPPH; conditions: DPPH 240 μM; 1, 3 and 10 μM; 10-minute reaction; FIG. 10
# Description: The reactive oxygen species (ROS) scavenging ability of fraction I or pure isolated compounds was studied as previously reported with some modifications (Tarkhan et al., 2019). In a 96-well clear plate, the fraction I (1-10 μg/ml) or pure isolated compounds (1-10 μM) in methanol was added to DPPH solution (240 μM) in methanol/tris (1:1 v/v). For the time control (C), methanol was used instead of the fraction or compounds. DPPH was prepared immediately before addition to the plate. The absorbance was measured at 520 nm every minute for 10 minutes with the use of Monochromator SPECTRAMAX® M3 plate reader (Molecular Devices, Sunnyvale, Calif., USA).
Compound,vasodilation of PE precontracted isolated aortae [1],"vasodilation of PE-precontracted isolated aortae ([1]; maximal extent reached, 1-10 μM, FIG. 7B) [%]",effect of endothelial denudation on vasodilation activity [2],vascular NO production (DAF-FM fluorescence) compared with control [3],DPPH free radical scavenging activity [4]
"CCC(C)C(=O)c1c(O)c(C)c(OCC=C(C)C)c(C(=O)CC(C)C)c1O (stereo not shown) [compound 1, 3,5-dihydroxy-6-methyl-1-[(3-methylbut-2-en-1-yl)oxy]-2-(3-methylbutyryl)-4-(2-methylbutyryl)-benzene]",concentration dependent vasodilation,,,,
"CC(C)=CCC(=O)C1CC23CC(Cl)C(C)(C)OC2(C(O)C=C(C)C)C(=O)C(C(=O)C(C)C)(C3=O)C1(C)C (stereo not shown) [compound 2, 3-chloro-9a-(1-hydroxy-3-methylbut-2-en-1-yl)-8-isobutyryl-2,2,7,7-tetramethyl-6-(4-methylpent-3-enoyl)hexahydro-2H-4a,8-methanocyclohepta[b]pyran-9,10(9aH)-dione]",reached statistical significance at concentrations of 3 and 10 μM,50,completely blocked the vasodilation activity,induced NO production that reached statistical significance,
"CC[C@H](CC[C@@H](C)[C@H]1CC[C@H]2[C@@H]3CC=C4C[C@@H](O)CC[C@]4(C)[C@H]3CC[C@]12C)C(C)C [compound 3, β-sitosterol]",concentration dependent vasodilation,,completely blocked the vasodilation activity,induced NO production that reached statistical significance,
"COc1cc2c(=O)c3ccccc3oc2c(OC)c1OC [compound 5, 2,3,4-trimethoxy xanthone]",concentration dependent vasodilation,,blocked the vasodilation activity,,significant free radical scavenging activity
euxanthone [compound 4],did not show any significant vasodilation,,did not have any significant effect,,

# Reference: US10780139B1, “Hypericum revolutum extract as a vasodilator” (King Abdulaziz University, priority 2020, dated 2020)
